Assay results published in patent publication US20120010072A1 (priority 2009, published 2012).
Where two headings read alike, the source gives them in different places.

What was measured:
[1] = test system: Phytophthora infestans; assay type: cell-based; conditions: 405 nm, 7 days after inoculation, 18° C.
[2] = test system: Sugar beet seeds (Beretta); assay: Safener effect of dimethomorph: germination of pelleted sugar beet seeds under cold stress; assay type: in vivo; conditions: 30 g a.i./U seed pelleting; % of sown seeds; 6 days 13° C. then 5° C.; all seeds also treated with 6 g/U thiram and 14.7 g/U hymexazole
Method: Sugar beet seeds (Beretta) were pelleted either with pyraclostrobin alone or with pyraclostrobin in combination with dimethomorph. After sowing, the seeds (200 seeds per treatment, 4 repetitions) were grown for 6 days at 13° C. and then exposed to 5° C. for 7 days. Cultivation was then continued at 20° C. During the whole cultivation period the soil was kept at 20% humidity. 7 and 8 days after sowing (DAS) germination was assessed as % of the number of sown seeds.

[3] = test system: Septoria tritici; conditions: 0.004 ppm; 405 nm, 7 days after inoculation, 18° C.

## C/C(=N\C#N)N(C)Cc1ccc(Cl)nc1 [Acetamiprid]
[1]; 0.25 ppm
  Observed efficacy: 0%

## COc1ccc(C(=CC(=O)N2CCOCC2)c2ccc(Cl)cc2)cc1OC [Dimethomorph]
[1]; 0.25 ppm
  Observed efficacy: 51%

## CC(C)C1CCC(Cc2ccc(Cl)cc2)C1(O)Cn1cncn1 (stereo not drawn) [Ipconazol]
[1]; 0.063 ppm
  Observed efficacy: 2%

## COC(=O)N(OC)c1ccccc1COc1ccn(-c2ccc(Cl)cc2)n1 [Pyraclostrobin]
[2]
  Germination 7 DAS: 16%
  Germination 8 DAS: 27%
[3]
  Observed efficacy: 49%
